# Laboratory results: ChEMBL document CHEMBL5385913, “First-in-Class Dual EZH2-HSP90 Inhibitor Eliciting Striking Antiglioblastoma Activity In Vitro and In Vivo” (J Med Chem, 2024)
# The source made the active and inactive calls. The calls are words filed in the database; no cut-off is given here.
# Experiments:
# GBM [1] = assay: Upregulation of HSP90AA1 gene expression in TMZ-resistant patient-derived human GBM cells by KEGG analysis; format: functional, cell-based
# GBM [2] = assay: Upregulation of HSPA4 gene expression in TMZ-resistant patient-derived human GBM cells by KEGG analysis; format: functional, cell-based
# GBM [3] = assay: Upregulation of HSPA1A gene expression in TMZ-resistant patient-derived human GBM cells by KEGG analysis; format: functional, cell-based
# GBM [4] = assay: Upregulation of ARF3 gene expression in TMZ-resistant patient-derived human GBM cells by KEGG analysis; format: functional, cell-based
# GBM [5] = assay: Upregulation of ZYX gene expression in TMZ-resistant patient-derived human GBM cells by KEGG analysis; format: functional, cell-based
# GBM [6] = assay: Downregulation of RPS6 gene expression in TMZ-resistant patient-derived human GBM cells by KEGG analysis; format: functional, cell-based
# GBM [7] = assay: Downregulation of RPL26 gene expression in TMZ-resistant patient-derived human GBM cells by KEGG analysis; format: functional, cell-based
# GBM [8] = assay: Downregulation of RPS10 gene expression in TMZ-resistant patient-derived human GBM cells by KEGG analysis; format: functional, cell-based
# GBM [9] = assay: Downregulation of MCM3 gene expression in TMZ-resistant patient-derived human GBM cells by KEGG analysis; format: functional, cell-based
# GBM [10] = assay: Suppression of cell division in TMZ-resistant patient-derived human GBM cells by GSEA analysis; format: functional, cell-based
# GBM [11] = assay: Suppression of DNA repair in TMZ-resistant patient-derived human GBM cells by GSEA analysis; format: functional, cell-based
# GBM [12] = assay: Upregulation of apoptosis-related gene expression in TMZ-resistant patient-derived human GBM cells; format: functional, cell-based
# GBM [13] = assay: Upregulation of necrosis-related gene expression in TMZ-resistant patient-derived human GBM cells; format: functional, cell-based
# GBM [14] = assay: Downregulation of kinetochore-related gene expression in TMZ-resistant patient-derived human GBM cells; format: functional, cell-based
# GBM [15] = assay: Downregulation of CDK1 level in TMZ-resistant patient-derived human GBM cells upto 5 uM incubated for 48 to 72 hrs by Western blot analysis; format: functional, cell-based; conditions: time 48-72 hrs
# GBM [16] = assay: Downregulation of CENPF level in TMZ-resistant patient-derived human GBM cells upto 5 uM incubated for 48 to 72 hrs by Western blot analysis; format: functional, cell-based; conditions: time 48-72 hrs
# GBM [17] = assay: Downregulation of CENPE level in TMZ-resistant patient-derived human GBM cells upto 5 uM incubated for 48 to 72 hrs by Western blot analysis; format: functional, cell-based; conditions: time 48-72 hrs
# GBM [18] = assay: Downregulation of CENPA level in TMZ-resistant patient-derived human GBM cells upto 5 uM incubated for 48 to 72 hrs by Western blot analysis; format: functional, cell-based; conditions: time 48-72 hrs
# GBM [19] = assay: Downregulation of CENPI level in TMZ-resistant patient-derived human GBM cells upto 5 uM incubated for 48 to 72 hrs by Western blot analysis; format: functional, cell-based; conditions: time 48-72 hrs
# [20] = Downregulation of CENPF level in TMZ-resistant patient-derived human GBM cells assessed as fold change at 2 uM by GlioVis analysis (reference value: 6.6); format: functional
# [21] = Downregulation of NASP level in TMZ-resistant patient-derived human GBM cells assessed as fold change at 2 uM by GlioVis analysis (reference value: 5.08); format: functional
# [22] = Downregulation of CENPW level in TMZ-resistant patient-derived human GBM cells assessed as fold change at 2 uM by GlioVis analysis (reference value: 2.83); format: functional
# [23] = Downregulation of CENPO level in TMZ-resistant patient-derived human GBM cells assessed as fold change at 2 uM by GlioVis analysis (reference value: 3.12); format: functional
# [24] = Downregulation of CENPO level in TMZ-resistant patient-derived human GBM cells assessed as fold change at 2 uM by GlioVis analysis (reference value: 2.67); format: functional
# [25] = Downregulation of CENPK level in TMZ-resistant patient-derived human GBM cells assessed as fold change at 2 uM by GlioVis analysis (reference value: 3.71); format: functional
# [26] = Effect on processing DNA double-strand break in TMZ-resistant patient-derived human GBM cells assessed as fold decrease in RBBP8 gene expression at 2 uM (reference value: 4.92); format: functional
# [27] = Effect on processing DNA double-strand break in TMZ-resistant patient-derived human GBM cells assessed as fold decrease in DNA2 gene expression at 2 uM (reference value: 2.75); format: functional
# GBM [28] = assay: Effect on homologous recombination in TMZ-resistant patient-derived human GBM cells assessed as fold decrease in TOP2A gene expression at 2 uM (reference value: 6.78); format: functional
# GBM [29] = assay: Effect on homologous recombination in TMZ-resistant patient-derived human GBM cells assessed as fold decrease in RAD21 gene expression at 2 uM (reference value: 5.77); format: functional
# GBM [30] = assay: Effect on homologous recombination in TMZ-resistant patient-derived human GBM cells assessed as fold decrease in HDAC10 gene expression at 2 uM (reference value: 0.53); format: functional
# GBM [31] = assay: Effect on homologous recombination in TMZ-resistant patient-derived human GBM cells assessed as fold decrease in RAD54B gene expression at 2 uM (reference value: 1.74); format: functional
# GBM [32] = assay: Effect on homologous recombination in TMZ-resistant patient-derived human GBM cells assessed as fold decrease in MND1 gene expression at 2 uM (reference value: 2.95); format: functional
# GBM [33] = assay: Effect on homologous recombination in TMZ-resistant patient-derived human GBM cells assessed as fold decrease in PSMC3IP gene expression at 2 uM (reference value: 2.71); format: functional
# GBM [34] = assay: Effect on homologous recombination in TMZ-resistant patient-derived human GBM cells assessed as fold decrease in RMI1 gene expression at 2 uM (reference value: 3.44); format: functional
# GBM [35] = assay: Induction of ROS production in patient-derived human GBM cells measured after 48 hrs by DHR staining based flow cytometry; format: functional, cell-based
# GBM [36] = assay: Induction of ROS production in patient-derived human GBM cells assessed as decrease in GPX1 level upto 10 uM measured after 48 hrs by Western blot analysis; format: functional, cell-based
# GBM [37] = assay: Induction of ROS production in TMZ-resistant patient-derived human GBM cells assessed as decrease in GPX1 level upto 10 uM measured after 48 hrs by Western blot analysis; format: functional, cell-based
# [38] = molecular target: Histone-lysine N-methyltransferase EZH2 (Homo sapiens) (UniProt Q15910); assay: Inhibition of EZH2 in TMZ-resistant patient-derived human GBM cells upto 10 uM measured after 48 hrs by Western blot analysis; format: cell-based
# [39] = molecular target: Histone-lysine N-methyltransferase EZH2 (Homo sapiens) (UniProt Q15910); assay: Inhibition of EZH2 in patient-derived human GBM cells upto 10 uM measured after 48 hrs by Western blot analysis; format: cell-based
# [40] = molecular target: Histone-lysine N-methyltransferase EZH2 (Homo sapiens) (UniProt Q15910); assay: Inhibition of EZH2-mediated H3K27 trimethylation in patient-derived human GBM cells upto 10 uM measured after 48 hrs by Western blot analysis; format: cell-based
# GBM [41] = assay: Induction of mitochondrial ROS production in TMZ-resistant patient-derived human GBM cells by MitoSOX staining based analysis; format: functional, cell-based
# GBM [42] = assay: Antitumor activity against TMZ-resistant patient-derived human GBM cells xenografted in NOD.CB17-Prkdcscid/NCrCrl mouse assessed as reduction in tumor growth at 20 mg/kg, ip treated twice per week; format: functional, organism-based
# Chain of Histone-lysine N-methyltransferase EZH2 (Homo sapiens) (Q15910 whole entry, looked up): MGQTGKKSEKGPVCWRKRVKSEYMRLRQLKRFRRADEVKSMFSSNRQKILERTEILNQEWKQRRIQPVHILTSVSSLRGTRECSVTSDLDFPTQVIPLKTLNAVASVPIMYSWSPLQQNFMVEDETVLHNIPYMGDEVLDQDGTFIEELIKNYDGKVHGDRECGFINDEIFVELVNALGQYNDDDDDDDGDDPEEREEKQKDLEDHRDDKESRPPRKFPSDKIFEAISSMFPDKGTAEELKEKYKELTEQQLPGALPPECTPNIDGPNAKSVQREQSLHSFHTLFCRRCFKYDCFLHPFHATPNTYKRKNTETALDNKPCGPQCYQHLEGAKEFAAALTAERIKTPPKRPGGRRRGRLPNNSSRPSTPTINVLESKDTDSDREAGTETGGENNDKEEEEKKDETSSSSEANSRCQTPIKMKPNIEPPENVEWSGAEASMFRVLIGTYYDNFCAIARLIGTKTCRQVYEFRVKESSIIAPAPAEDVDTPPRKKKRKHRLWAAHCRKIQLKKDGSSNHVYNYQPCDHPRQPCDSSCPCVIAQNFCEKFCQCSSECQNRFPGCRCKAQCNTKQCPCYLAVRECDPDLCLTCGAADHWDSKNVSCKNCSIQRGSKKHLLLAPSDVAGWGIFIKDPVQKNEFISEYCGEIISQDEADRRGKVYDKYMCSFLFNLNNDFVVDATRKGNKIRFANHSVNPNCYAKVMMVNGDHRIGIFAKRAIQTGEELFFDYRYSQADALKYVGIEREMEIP
smiles,measurement,setting,value
CCN(c1cc(-c2cccc(N(C)C(=O)c3cc(C(C)C)c(O)cc3O)c2)cc(C(=O)NCc2c(C)cc(C)[nH]c2=O)c1C)C1CCOCC1,Activity,GBM [1],Active
same,Activity,GBM [2],Active
same,Activity,GBM [3],Active
same,Activity,GBM [4],Active
same,Activity,GBM [5],Active
same,Activity,GBM [6],Active
same,Activity,GBM [7],Active
same,Activity,GBM [8],Active
same,Activity,GBM [9],Active
same,Activity,GBM [10],Active
same,Activity,GBM [11],Active
same,Activity,GBM [12],Active
same,Activity,GBM [13],Active
same,Activity,GBM [14],Active
same,Activity,GBM [15],Active
same,Activity,GBM [16],Active
same,Activity,GBM [17],Active
same,Activity,GBM [18],Active
same,Activity,GBM [19],Active
same,fold change (FC),[20],3.46
same,fold change (FC),[21],3.41
same,fold change (FC),[22],0.72
same,fold change (FC),[23],1.84
same,fold change (FC),[24],1.53
same,fold change (FC),[25],1.33
same,fold change (FC),[26],3.95
same,fold change (FC),[27],1.33
same,fold change (FC),GBM [28],2.68
same,fold change (FC),GBM [29],4.69
same,fold change (FC),GBM [30],0.17
same,fold change (FC),GBM [31],0.83
same,fold change (FC),GBM [32],0.36
same,fold change (FC),GBM [33],1.17
same,fold change (FC),GBM [34],2.33
same,Activity,GBM [35],Active
same,Activity,GBM [36],Active
same,Activity,GBM [37],Active
same,inhibition,[38],Active
same,inhibition,[39],Active
same,inhibition,[40],Active
same,Activity,GBM [41],Active
same,Activity,GBM [42],Active
